Experimental data published in ChEMBL document CHEMBL3297661, “1-Substituted-5-[(3,5-dinitrobenzyl)sulfanyl]-1H-tetrazoles and their isosteric analogs: A new class of selective antitubercular agents active against drug-susceptible and multidrug-resistant mycobacteria” (Eur J Med Chem, 2014).
pIC50: −log10 of the molar value. In brackets after ≈: the same amount, converted by molar mass.

What was measured:
HepG2 = experiment: Cytotoxicity against human HepG2 cells assessed as reduction in cell viability after 48 hrs by MTT assay; assay type: cell-based; conditions: HepG2, 48 h
Staphylococcus aureus [1] = experiment: Antibacterial activity against Staphylococcus aureus ATCC 6538 after 24 hrs by broth microdilution method; assay type: functional; conditions: ATCC 6538, 24 h
Candida albicans [2] = experiment: Antifungal activity against Candida albicans ATCC 44859 after 24 hrs by broth microdilution method; assay type: functional; conditions: ATCC 44859, 24 h
Mycobacterium kansasii [3] = experiment: Antimycobacterial activity against Mycobacterium kansasii CNCTC My 235/80 after 7 days by micromethod; assay type: functional; conditions: CNCTC My 235/80, 168 h
Lichtheimia corymbifera [4] = experiment: Antifungal activity against Absidia corymbifera 272 after 24 hrs by broth microdilution method; assay type: functional, organism-based; conditions: Lichtheimia corymbifera, 272, 24 h
Mycobacterium avium [5] = experiment: Antimycobacterial activity against Mycobacterium avium CNCTC My 330/88 after 14 days by micromethod; assay type: functional; conditions: CNCTC My 330/88, 336 h
Nakaseomyces glabratus [6] = experiment: Antifungal activity against Candida glabrata 20/I after 48 hrs by broth microdilution method; assay type: functional
[7] = system: Mycobacterium tuberculosis; experiment: Antimycobacterial activity against Mycobacterium tuberculosis CNCTC My 331/88 after 14 days by micromethod; assay type: functional; conditions: CNCTC My 331/88, 336 h
[8] = Cytotoxicity against MDCK2 cells assessed as cell viability at 30 uM after 48 hrs by MTT assay; assay type: cell-based, Canis lupus familiaris, MDCK-II; conditions: dog, read-out: Activity
Candida tropicalis [9] = experiment: Antifungal activity against Candida tropicalis 156 after 24 hrs by broth microdilution method; assay type: functional; conditions: Candida tropicalis, 156, 24 h
Klebsiella pneumoniae [10] = experiment: Antibacterial activity against Klebsiella pneumoniae D 11750/08 after 24 hrs by broth microdilution method; assay type: functional; conditions: D 11750/08, 24 h
Trichosporon asahii [11] = experiment: Antifungal activity against Trichosporon asahii 1188 after 48 hrs by broth microdilution method; assay type: functional; conditions: Trichosporon asahii, 1188, 48 h
Nakaseomyces glabratus [12] = experiment: Antifungal activity against Candida glabrata 20/I after 24 hrs by broth microdilution method; assay type: functional
[13] = system: Trichophyton mentagrophytes; experiment: Antifungal activity against Trichophyton mentagrophytes 445 after 120 hrs by broth microdilution method; assay type: functional, organism-based; conditions: Trichophyton mentagrophytes, 445, 120 h
Enterococcus faecalis [14] = experiment: Antibacterial activity against Enterococcus faecalis J 14365/08 after 24 hrs by broth microdilution method; assay type: functional; conditions: J 14365/08, 24 h
Staphylococcus aureus [15] = experiment: Antibacterial activity against methicillin-resistant Staphylococcus aureus H 5996/08 after 24 hrs by broth microdilution method; assay type: functional; conditions: H 5996/08, 24 h
Trichosporon asahii [16] = experiment: Antifungal activity against Trichosporon asahii 1188 after 24 hrs by broth microdilution method; assay type: functional; conditions: Trichosporon asahii, 1188, 24 h
Aspergillus fumigatus [17] = experiment: Antifungal activity against Aspergillus fumigatus 231 after 48 hrs by broth microdilution method; assay type: functional, organism-based; conditions: Aspergillus fumigatus, 231, 48 h
Staphylococcus aureus [18] = experiment: Antibacterial activity against Staphylococcus aureus ATCC 6538 after 48 hrs by broth microdilution method; assay type: functional; conditions: ATCC 6538, 48 h
Mycobacterium avium [19] = experiment: Antimycobacterial activity against Mycobacterium avium CNCTC My 330/88 after 21 days by micromethod; assay type: functional; conditions: CNCTC My 330/88, 504 h
Klebsiella pneumoniae [20] = experiment: Antibacterial activity against extended spectrum beta-lactamase producing Klebsiella pneumoniae J 14368/08 after 24 hrs by broth microdilution method; assay type: functional; conditions: J 14368/08, 24 h
Lichtheimia corymbifera [21] = experiment: Antifungal activity against Absidia corymbifera 272 after 48 hrs by broth microdilution method; assay type: functional, organism-based; conditions: Lichtheimia corymbifera, 272, 48 h
Escherichia coli [22] = experiment: Antibacterial activity against Escherichia coli ATCC 8739 after 48 hrs by broth microdilution method; assay type: functional; conditions: ATCC 8739, ATCC 8739, 48 h
Aspergillus fumigatus [23] = experiment: Antifungal activity against Aspergillus fumigatus 231 after 24 hrs by broth microdilution method; assay type: functional, organism-based; conditions: Aspergillus fumigatus, 231, 24 h
Klebsiella pneumoniae [24] = experiment: Antibacterial activity against Klebsiella pneumoniae D 11750/08 after 48 hrs by broth microdilution method; assay type: functional; conditions: D 11750/08, 48 h
Mycobacterium kansasii [25] = experiment: Antimycobacterial activity against Mycobacterium kansasii 6509/96 after 7 days by micromethod; assay type: functional; conditions: 6509/96, 168 h
Candida tropicalis [26] = experiment: Antifungal activity against Candida tropicalis 156 after 48 hrs by broth microdilution method; assay type: functional; conditions: Candida tropicalis, 156, 48 h
[27] = system: Trichophyton mentagrophytes; experiment: Antifungal activity against Trichophyton mentagrophytes 445 after 72 hrs by broth microdilution method; assay type: functional, organism-based; conditions: Trichophyton mentagrophytes, 445, 72 h
[28] = system: Mycobacterium tuberculosis; experiment: Antimycobacterial activity against Mycobacterium tuberculosis CNCTC My 331/88 after 21 days by micromethod; assay type: functional; conditions: CNCTC My 331/88, 504 h
Pichia kudriavzevii [29] = experiment: Antifungal activity against Candida krusei E28 after 48 hrs by broth microdilution method; assay type: functional; conditions: E28, 48 h
Pseudomonas aeruginosa [30] = experiment: Antibacterial activity against Pseudomonas aeruginosa ATCC 9027 after 24 hrs by broth microdilution method; assay type: functional; conditions: ATCC 9027, 24 h
Staphylococcus aureus [31] = experiment: Antibacterial activity against methicillin-resistant Staphylococcus aureus H 5996/08 after 48 hrs by broth microdilution method; assay type: functional; conditions: H 5996/08, 48 h
Pichia kudriavzevii [32] = experiment: Antifungal activity against Candida krusei E28 after 24 hrs by broth microdilution method; assay type: functional; conditions: E28, 24 h
Klebsiella pneumoniae [33] = experiment: Antibacterial activity against extended spectrum beta-lactamase producing Klebsiella pneumoniae J 14368/08 after 48 hrs by broth microdilution method; assay type: functional; conditions: J 14368/08, 48 h
[34] = Cytotoxicity against human HuH7 cells assessed as reduction in cell viability after 48 hrs by MTT assay; assay type: cell-based; conditions: Huh-7, 48 h
Mycobacterium kansasii [35] = experiment: Antimycobacterial activity against Mycobacterium kansasii CNCTC My 235/80 after 14 days by micromethod; assay type: functional; conditions: CNCTC My 235/80, 336 h
Enterococcus faecalis [36] = experiment: Antibacterial activity against Enterococcus faecalis J 14365/08 after 48 hrs by broth microdilution method; assay type: functional; conditions: J 14365/08, 48 h
[37] = Cytotoxicity against human HeLa cells assessed as cell viability at 30 uM after 48 hrs by MTT assay; assay type: cell-based; conditions: read-out: Activity
Mycobacterium kansasii [38] = experiment: Antimycobacterial activity against Mycobacterium kansasii 6509/96 after 14 days by micromethod; assay type: functional; conditions: 6509/96, 336 h
Mycobacterium kansasii [39] = experiment: Antimycobacterial activity against Mycobacterium kansasii CNCTC My 235/80 after 21 days by micromethod; assay type: functional; conditions: CNCTC My 235/80, 504 h
[40] = Cytotoxicity against human HuH7 cells assessed as cell viability at 30 uM after 48 hrs by MTT assay; assay type: cell-based, Huh-7; conditions: read-out: Activity
[41] = system: Staphylococcus epidermidis; experiment: Antibacterial activity against Staphylococcus epidermidis H 6966/08 after 48 hrs by broth microdilution method; assay type: functional; conditions: H 6966/08, 48 h
Mycobacterium kansasii [42] = experiment: Antimycobacterial activity against Mycobacterium kansasii 6509/96 after 21 days by micromethod; assay type: functional; conditions: 6509/96, 504 h
Pseudomonas aeruginosa [43] = experiment: Antibacterial activity against Pseudomonas aeruginosa ATCC 9027 after 48 hrs by broth microdilution method; assay type: functional; conditions: ATCC 9027, 48 h
[44] = Cytotoxicity against human HepG2 cells assessed as cell viability at 30 uM after 48 hrs by MTT assay; assay type: cell-based; conditions: read-out: Activity
Escherichia coli [45] = experiment: Antibacterial activity against Escherichia coli ATCC 8739 after 24 hrs by broth microdilution method; assay type: functional; conditions: ATCC 8739, ATCC 8739, 24 h
[46] = system: Staphylococcus epidermidis; experiment: Antibacterial activity against Staphylococcus epidermidis H 6966/08 after 24 hrs by broth microdilution method; assay type: functional; conditions: H 6966/08, 24 h
HeLa = experiment: Cytotoxicity against human HeLa cells assessed as reduction in cell viability after 48 hrs by MTT assay; assay type: cell-based
[47] = Cytotoxicity against MDCK2 cells assessed as reduction in cell viability after 48 hrs by MTT assay; assay type: cell-based; conditions: Canis lupus familiaris, MDCK-II
Candida albicans [48] = experiment: Antifungal activity against Candida albicans ATCC 44859 after 48 hrs by broth microdilution method; assay type: functional; conditions: ATCC 44859, 48 h
[49] = system: Mycobacterium tuberculosis; experiment: Antimycobacterial activity against Mycobacterium tuberculosis H37Rv; assay type: functional

Question: Which results are given for `O=[N+]([O-])c1cc(C[Se]c2nnnn2Cc2ccccc2)cc([N+](=O)[O-])c1`?
Answer: pIC50 (HepG2): 4.78; IC95 (Staphylococcus aureus [1]): > 500 µM; IC80 (Candida albicans [2]): > 500 µM; MIC (Mycobacterium kansasii [3]): 2 µM (≈ 0.839 µg/mL); pIC50 (Lichtheimia corymbifera [4]): < 3.30; MIC (Mycobacterium avium [5]): 32 µM (≈ 13.4 µg/mL); IC80 (Nakaseomyces glabratus [6]): > 500 µM; MIC [7]: 1 µM (≈ 0.419 µg/mL); viability at 48 h, 30 µM [8]: 41%; IC80 (Candida tropicalis [9]): > 500 µM; IC95 (Klebsiella pneumoniae [10]): > 500 µM; IC80 (Trichosporon asahii [11]): > 500 µM; IC80 (Nakaseomyces glabratus [12]): > 500 µM; pIC50 [13]: < 3.30; IC95 (Enterococcus faecalis [14]): > 500 µM; IC95 (Staphylococcus aureus [15]): > 500 µM; IC80 (Trichosporon asahii [16]): > 500 µM; pIC50 (Aspergillus fumigatus [17]): < 3.30; IC95 (Staphylococcus aureus [18]): > 500 µM; MIC (Mycobacterium avium [19]): 32 µM (≈ 13.4 µg/mL); IC95 (Klebsiella pneumoniae [20]): > 500 µM; pIC50 (Lichtheimia corymbifera [21]): < 3.30; IC95 (Escherichia coli [22]): > 500 µM; pIC50 (Aspergillus fumigatus [23]): < 3.30; IC95 (Klebsiella pneumoniae [24]): > 500 µM; MIC (Mycobacterium kansasii [25]): 4 µM (≈ 1.68 µg/mL); IC80 (Candida tropicalis [26]): > 500 µM; pIC50 [27]: < 3.30; MIC [28]: 2 µM (≈ 0.839 µg/mL); IC80 (Pichia kudriavzevii [29]): > 500 µM; IC95 (Pseudomonas aeruginosa [30]): > 500 µM; IC95 (Staphylococcus aureus [31]): > 500 µM; IC80 (Pichia kudriavzevii [32]): > 500 µM; IC95 (Klebsiella pneumoniae [33]): > 500 µM; pIC50 [34]: < 4.52; MIC (Mycobacterium kansasii [35]): 4 µM (≈ 1.68 µg/mL); IC95 (Enterococcus faecalis [36]): > 500 µM; viability at 48 h, 30 µM [37]: 54%; MIC (Mycobacterium kansasii [38]): 8 µM (≈ 3.35 µg/mL); MIC (Mycobacterium kansasii [39]): 4 µM (≈ 1.68 µg/mL); viability at 48 h, 30 µM [40]: 70%; IC95 [41]: > 500 µM; MIC (Mycobacterium kansasii [42]): 8 µM (≈ 3.35 µg/mL); IC95 (Pseudomonas aeruginosa [43]): > 500 µM; viability at 48 h, 30 µM [44]: 33%; IC95 (Escherichia coli [45]): > 500 µM; IC95 [46]: > 500 µM; pIC50 (HeLa): < 4.52; pIC50 [47]: 4.66; IC80 (Candida albicans [48]): > 500 µM

Question: For `C[C@]1(COc2ccc(N3CCC(Oc4ccc(OC(F)(F)F)cc4)CC3)cc2)Cn2cc([N+](=O)[O-])nc2O1` [DELAMANID], which MIC [49] is on record?
Answer: The MIC was 0.02 µM (≈ 0.0107 µg/mL).

Question: Which MIC [49] does the source give for `C[C@H]1COC2(CCN(c3nc(=O)c4cc(C(F)(F)F)cc([N+](=O)[O-])c4s3)CC2)O1` [BTZ-043] here?
Answer: Its MIC is 0.0023 µM (≈ 0.000992 µg/mL).
